From paper PMC12684391, “Mechanistic insights into the monotherapy and combination potential of FEN1 inhibition in cancer therapy” (Nucleic Acids Research, 2025)

Legend:
DLD-1 cells = assay: Cell viability assay (AlamarBlue), 7 days; format: cell-based; conditions: Homo sapiens, 168 h, DLD-1 wild-type, N = 3
Procedure: Cells were seeded in 96-well plates and treated the day after seeding with a serial dilution of compounds in technical duplicates. After 7 days, viability was analyzed using the AlamarBlue reagent (BioRad). AlamarBlue was added in an amount equal to 10% of the volume in the well and after a 4–6 h incubation viability was determined by fluorescence analysis using a standard plate reader. Fluorescence was normalized to vehicle treated control for each cell line, and data were fitted in Genedata Screener to generate compound sensitivity curves and determine IC50 or EC50 (half maximal inhibitory/effective concentration) values as indicated.

GEN1 = target: T1, GEN1 (Homo sapiens, UniProt Q17RS7); assay: Fluorescence-based nuclease activity assay, GEN1; format: biochemical; conditions: n = 11, SD = 569; cognate substrate
T1 construct: Truncated GEN1 (1-527) was expressed in insect cells; Strep-tag (implied by Streptrap column); made in house; host or cells: insect cells
Procedure: (§1) MSC778 was dissolved in dimethyl sulphoxide (DMSO) to give a 10 mM stock. FEN1/EXO1: compound was dispensed into black 384-shallow well microplates (Greiner #784076). The compound was dispensed as an 11-point dose response with a 3-fold serial dilution from a top concentration of 10 mM (to give a final in-assay concentration of 100 µM). GEN1/XPG: MSC778 was dispensed into black 1536-well plates (Greiner #782076). The compound was dispensed as a 20-point dose response with a 3-fold serial dilution from a top concentration of 10 mM (to give a final in-assay concentration of 100 µM). The volume of DMSO was adjusted to ensure that each well contained 1% (v/v) DMSO in the final assay. Control wells containing DMSO alone or inhibitor at sufficient concentration to cause complete inhibition of the reaction were also included. […]
(§2) 5 µl (FEN1/EXO1) or 3 µl per well (GEN1/XPG) of stop buffer (20 mM Tris pH 7.5, 300 mM EDTA) was added to all wells, then the plates were read on the CLARIOstar Plus (BMG LABTECH Ltd.) using the Fluorescein (FITC) wavelengths (Ex 483 ± 14, Em 530 ± 30, Dichroic auto/502.5) and auto focal height/gain settings.
(§3) All data analysis was carried out using Genedata Screener software. IC50 values were calculated using the SmartFit function.

XPG = target: T2, XPG (Homo sapiens, UniProt P28715); assay: Fluorescence-based nuclease activity assay, XPG; format: biochemical; conditions: n = 10, SD = 0.86; cognate substrate
T2 construct: XPG (1-1186); Strep-tag (C); made in house; host or cells: Sf9 insect cells
Procedure: as §1, §2, §3

NanoLuc-FEN1 = target: T3, NanoLuc-FEN1 (Homo sapiens, UniProt P39748); assay: NanoBRET cellular target engagement assay in HEK-293 cells; format: cell-based; conditions: more potent than MSC781
T3 construct: host or cells: HEK-293
Procedure: The NanoBRET™ assay was set-up and performed by Promega, Madison, USA [40]. The tracer compound (“tracer 6”) was synthesized based on an in-house compound. A NanoLuc®-FEN1 expression plasmid was transiently transfected into HEK-293 cells and 20 µl of subsequent cell/DNA suspension dispensed into wells of 384-well assay plates. Tracer 6 (final concentration 125 nM) and test compounds (10 step 1:3 dilution from a top concentration of 10 µM) in 100% DMSO were dispensed with a Echo Labcyte (Beckman Coulter) in technical duplicates.
To induce NanoLuc activity, 10 µl of 3× detection substrate NanoBRET™ Nano-GLO® Live Cell Solution in OptiMEM with digitonin (final concentration 150 µg/ml) were added per well. Kinetics were followed by luminescence multimode reader (DonorEm 450nm/AcceptorEm 610 nm) for 1 h. BRET ratios were calculated and resulting mBRET values were graphed versus compound concentrations and fitted to a nonlinear regression curve (four parameters) to determine IC50 values.
In this assay, NanoBRET occurs between a fluorescent moiety (acceptor) on a tracer molecule and the NanoLuc tag (donor) on FEN1 that are in close proximity.

FEN1 = target: T4, FEN1 (Homo sapiens, UniProt P39748); assay: Fluorescence-based 5′-flap cleavage assay of FEN1 nuclease activity; format: biochemical
T4 construct: Full-length FEN1 (1-380) was expressed in Escherichia coli; 6His; made in house; host or cells: Escherichia coli
Procedure: as §1, with “assay.” for “assay. Control wells containing DMSO alone or inhibitor at sufficient concentration to cause complete inhibition of the reaction were also included.”
as §2, §3
A fluorescence-based 5′-flap cleavage assay, in which quenching of the fluorescence of a fluorescein amidite (FAM) moiety is alleviated by nucleolytic cleavage, was used to measure the nuclease activity of FEN1 (Fig. 1B and Supplementary Fig. S1A). […]

[1] = tested on: HCT-116, NCI-H460, SUM149PT, MDA-MB-436 cells; assay: Combination viability assay (CTG, Bliss synergy); format: cell-based; conditions: control in place of MSC778
Procedure: For combination analysis, cells were seeded in 70 μl of media in 384-well plates pre-dosed with compounds (5-point dose–response matrix) with a D300e digital dispenser (Tecan). Cell proliferation was determined after 7 days using CTG. Analysis was performed with Genedata Screener (Compound Synergy Extension) to determine Synergy scores (Bliss model), using a formulation whereby the Blissexcess is a continuous value and values higher than 2 are usually considered synergistic, and values between 0 and 2 are usually considered additive.

T4 sequence (P39748 whole entry): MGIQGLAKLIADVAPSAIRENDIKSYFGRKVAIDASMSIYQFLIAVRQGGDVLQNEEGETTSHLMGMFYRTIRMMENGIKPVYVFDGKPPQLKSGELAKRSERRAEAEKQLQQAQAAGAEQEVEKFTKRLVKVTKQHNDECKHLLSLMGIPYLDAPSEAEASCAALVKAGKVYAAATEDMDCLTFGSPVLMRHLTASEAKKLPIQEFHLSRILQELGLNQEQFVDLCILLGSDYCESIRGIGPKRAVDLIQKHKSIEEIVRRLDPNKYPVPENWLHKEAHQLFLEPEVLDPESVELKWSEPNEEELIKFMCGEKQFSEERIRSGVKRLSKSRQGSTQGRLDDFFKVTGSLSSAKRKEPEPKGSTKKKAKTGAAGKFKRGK
T2 sequence (P28715 whole entry): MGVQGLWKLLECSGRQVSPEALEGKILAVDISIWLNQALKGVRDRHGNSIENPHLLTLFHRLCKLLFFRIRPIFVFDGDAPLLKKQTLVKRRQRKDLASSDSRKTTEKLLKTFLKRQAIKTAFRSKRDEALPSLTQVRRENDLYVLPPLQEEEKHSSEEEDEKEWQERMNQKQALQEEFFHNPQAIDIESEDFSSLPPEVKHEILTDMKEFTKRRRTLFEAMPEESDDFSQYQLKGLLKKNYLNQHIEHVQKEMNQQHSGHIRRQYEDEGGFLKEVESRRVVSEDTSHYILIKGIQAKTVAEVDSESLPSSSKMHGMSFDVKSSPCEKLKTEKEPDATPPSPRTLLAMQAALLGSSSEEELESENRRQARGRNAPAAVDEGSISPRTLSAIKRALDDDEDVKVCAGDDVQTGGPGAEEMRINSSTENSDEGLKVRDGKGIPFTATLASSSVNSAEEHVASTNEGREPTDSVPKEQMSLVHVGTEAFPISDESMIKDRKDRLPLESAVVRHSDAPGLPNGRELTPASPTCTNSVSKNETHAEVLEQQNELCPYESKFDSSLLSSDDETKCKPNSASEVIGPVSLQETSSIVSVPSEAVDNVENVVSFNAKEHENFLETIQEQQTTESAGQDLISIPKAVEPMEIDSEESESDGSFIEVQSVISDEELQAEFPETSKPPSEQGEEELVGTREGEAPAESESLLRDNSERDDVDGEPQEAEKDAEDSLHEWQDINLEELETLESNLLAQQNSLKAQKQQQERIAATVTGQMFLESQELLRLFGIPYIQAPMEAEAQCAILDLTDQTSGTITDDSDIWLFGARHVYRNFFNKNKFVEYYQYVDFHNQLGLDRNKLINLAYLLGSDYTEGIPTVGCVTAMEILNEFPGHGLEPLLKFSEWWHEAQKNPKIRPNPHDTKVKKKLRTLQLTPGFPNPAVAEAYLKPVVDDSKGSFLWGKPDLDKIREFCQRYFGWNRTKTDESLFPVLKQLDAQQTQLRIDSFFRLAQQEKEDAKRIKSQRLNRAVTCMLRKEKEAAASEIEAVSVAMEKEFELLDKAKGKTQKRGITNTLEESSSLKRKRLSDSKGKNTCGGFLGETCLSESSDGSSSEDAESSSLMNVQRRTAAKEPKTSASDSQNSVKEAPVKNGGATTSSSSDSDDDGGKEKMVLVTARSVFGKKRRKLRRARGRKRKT
T3 sequence (P39748 whole entry): as the sequence (P39748 whole entry) above
T1 sequence (Q17RS7 1-527): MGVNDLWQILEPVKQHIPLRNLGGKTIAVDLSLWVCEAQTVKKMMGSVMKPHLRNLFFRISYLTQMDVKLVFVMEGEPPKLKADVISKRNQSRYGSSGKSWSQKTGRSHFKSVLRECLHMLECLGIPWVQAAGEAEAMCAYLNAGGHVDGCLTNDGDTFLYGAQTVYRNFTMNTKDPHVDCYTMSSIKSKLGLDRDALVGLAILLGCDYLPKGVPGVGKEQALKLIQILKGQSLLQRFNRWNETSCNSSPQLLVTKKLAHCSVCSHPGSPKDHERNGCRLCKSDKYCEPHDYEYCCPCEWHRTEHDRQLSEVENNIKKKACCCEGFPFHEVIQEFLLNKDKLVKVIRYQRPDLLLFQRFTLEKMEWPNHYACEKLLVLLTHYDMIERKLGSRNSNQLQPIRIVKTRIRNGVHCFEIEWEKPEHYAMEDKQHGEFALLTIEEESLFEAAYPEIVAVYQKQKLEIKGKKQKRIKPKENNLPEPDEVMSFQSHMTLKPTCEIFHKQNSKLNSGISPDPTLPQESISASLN

EC50 (DLD-1 cells) [nM] | IC50 (GEN1) [nM] | IC50 (XPG) [nM] | NanoBRET potency relative to MSC781 (NanoLuc-FEN1) [fold] | Potency on FEN1 nuclease activity relative to MSC781 (FEN1; more potent than MSC781) [fold] | IC50 (FEN1; n = 3, SD = 0.14, cognate 5′ flap substrate) [nM] | SMILES | Combination effects on viability with partner DDR inhibitors [1]
2300 | 1660 | 218 | 23 | 16 | 3.2 | C[C@H](Oc1nn2c(c(O)c1=O)C(=O)N1CCOC[C@@H]1C2)c1ccc2ccc(Cl)cc2c1 [MSC778] | 
 |  |  |  |  |  | C[C@@H](Oc1nn2c(c(O)c1=O)C(=O)N1CCOC[C@@H]1C2)c1ccc2ccc(Cl)cc2c1 [MSC781] | not observed
